# Patent publication US10058540B2, “2-amino-5,5-difluoro-6-(fluoromethyl)-6-phenyl-3,4,5,6-tetrahydropyridines as BACE1 inhibitors” (H. Lundbeck A/S, priority 2014, dated 2018)
# How the values were obtained:
# [1] = biological target: T1, BACE1 (Homo sapiens (Human), UniProt P56817); assay: BACE1 efficacy assay (FRET-based, commercial BACE1 kit); format: biochemical; settings: 10 μM test compound
# Description: The efficacy assay was performed as a FRET-based assay using a commercially available BACE1 kit (Life Technologies, P2985). 2 μl test compound at 10 μM (final concentration) and 15 μl BACE1 enzyme from the kit (final concentration 3 nM) were preincubated for 15 minutes at room temperature before addition of 15 μl of substrate from the kit (250 nM final concentration) and incubated for additional 90 minutes at room temperature. The assay plate was subsequently read in a Pherastar (Ex540/Em590). The enzyme activity observed in presence of test compound were normalized to the enzyme activity observed in presence of buffer and 10 μM (final concentration) of the high affinity BACE1 reference inhibitor (S)-6-[3-Chloro-5-(5-prop-1-ynyl-pyridin-3-yl)-thiophen-2-yl]-2-imino-3,6-dimethyl-tetra-hydropyrimidin-4-one, respectively. The efficacy of the test compounds was evaluated at 10 μM (final concentration) and defined as the percent inhibition of the enzyme activity using the equation % inhibition=100%−normalized enzyme activity in percent.
# [2] = tested on: P-gp (MDR1); assay: MDCK-MDR1 assay (permeability / Pgp efflux); format: in vitro ADME; settings: dog, Papp BA/Papp AB, Pgp substrate when ≥2
# Description: The permeability of the test compounds was assessed in MDCK-MDR1 cells that were cultured to confluency (4-6 days) in a 96 transwell plate. Test compounds were diluted with the transport buffer (HBSS+1% BSA) to a concentration of 0.5 μM and applied to the apical or basolateral side of the cell monolayer. Permeation of the test compounds from A to B direction or B to A direction was determined in triplicate over a 60-minute incubation time at 37° C. and 5% CO2 with a relative humidity of 95%. Test compounds were quantified by LC-MS/MS analysis based on the peaks area ratios of analyte/IS in both the receiver and donor wells of the transwell plate.
# The apparent permeability coefficient Papp (cm/s) was calculated using the equation: Papp=(dCr/dt)×Vr/(A×C0) Where dCr/dt is the cumulative concentration of compound in the receiver chamber as a function of time (μM/s); Vr is the solution volume in the receiver chamber (0.05 mL on the apical side; 0.25 mL on the basolateral side); A is the surface area for the transport, i.e. 0.0804 cm^2 for the area of the monolayer; C0 is the initial concentration in the donor chamber (μM).
# Compounds are classified Pgp substrates when efflux ratio (Papp BA/Papp AB) is ≥2.
# [3] = tested on: Aβ40; assay: Assessment of Aβ peptide levels in rat brain and plasma following BACE1 inhibition (Aβ40 ELISA); format: in vivo; settings: 3 hours post dose, vs vehicle
# Description: Assessment of Aβ Peptide Levels in Rat Brain and Plasma Following BACE1 Inhibition. Animals.
# Young adult Male Sprague Dawley rats of approximately 250 g weight were purchased from Charles River and received 0-30 mg/kg of vehicle (10% HP betaCD+1M MeSO4, pH 2.5) or test compounds (dissolved in vehicle) only by oral gavage (p.o). The compounds are dosed at a volume of […]. Cohorts of 5-10 animals were established for each treatment condition.
# At T=180 minutes after initial dosing the animals were stunned and decapitated with a guillotine. Trunk-blood was sampled in EDTA coated tubes after decapitation of the animal. The blood was centrifuged at 2200 G at 4° C. for 15 minutes and the plasma was collected and frozen at −80° C. The blood was aliquoted for Aβ ELISA and DMPK analysis. Immediately following sacrifice, the brain was extracted and split into 2 halves. The right hemibrains were snap frozen on dry ice and stored at −80° C. The left half was dissected; with the front forebrain taken for Aβ ELISA and the remainder used for DMPK analysis. These samples were also snap frozen on dry ice and stored at −80° C. until use for analysis.
# The cortex samples were thawed slightly on wet ice before they were homogenized with a small volume dispersing instrument (T10 basic ULTRA-TURRAX®) which was set at speed 5 for approximately 5-7 sec. The tissue was processed in a 10 times volume of the weight, for example 100 mg of tissue was homogenized in 1000 μL of Homogenization buffer. Homogenization buffer: 50 ml Milli Q water+[…]+0.2% Diethylamin (DEA)+1 tablet of Complete Protease inhibitor cocktail+1 nM 4-(2-aminoethyl)benzenesulfonyl fluoride hydrochloride irreversible serine protease inhibitor (AEBSF).
# After homogenization 450 μL aliquots of the samples are collected into a 1.5 ml Eppendorf tube and placed on wet ice, 0.5% NP-40 (50 ul) was added to all samples and then they were incubated on ice for 30 min. After which all samples were sonicated using an Ultrasonic homogenizer with 20 kHz homogeneous sound (SONOPLUS HD2070, Bandelin Electronic) 10 pulse set at 12-13% power to extract all the Aβ species. The samples were then centrifuged (Ole Dich 157 MPRF Micro centrifuge) at 20000 G for 20 minutes at 4° C. After centrifugation 285 μL of the supernatant was pipetted into 600 μL microtubes tubes and neutralized with 15 μL of 1M Tris-HCL buffer.
# WAKO 294-62501 Human/Rat Abeta amyloid (40) kit was used for all ELISA analyses. 30 μL plasma samples or 30 μL of the cortex supernatants generated as described above were placed in 600 μL microtubes tubes on wet ice. To this 30 μL of 8M Urea (AppliChem A1049, 9025) are added to generate a 2-fold dilution. Both plasma and cortex supernatants are incubated on ice for 30 min. Standard rows were prepared from the standard peptide stock provided in the kit and standard diluent containing 1.6M Urea (200 μL 8M Urea+800 μL of standard diluent) and 0.8M Urea (400 μL 8M Urea+3600 μL Standard diluent). A serial 2-fold dilution of Aβ40 from 100 pmol/ml to 0 pmol/L was prepared for the assay.
# After incubation with urea, all samples were further diluted by addition of 5 times standard diluent from the Kit. This was done by adding 240 μL Standard Diluent to 60 μL sample/urea mixture, which was then mixed well. 100 μL of each diluted sample was pipetted into designated wells of the ELISA plate in duplicates. The plate was then covered and incubated overnight at 4° C. The following day, the ELISA kit was brought to room temperature before use. The incubated plate was washed 5 times with the 20× washing solution diluted in Milli Q water. 100 μL HRP-conjugate was applied to each well, and the plate was covered and incubates at 4° C. for 1 hr. The wash was repeated again for 5 times. 100 μL 3,3′,5,5′-Tetramethylbenzidine (TMB) solution was applied to each well and the plate was covered and incubated in the dark at room temperature for 30 minutes. […]
# [4] = biological target: T1, BACE1; assay: BACE1 binding assay (SPA-based, radioligand); settings: pH 4.5, Ki=IC50/(1+L/Kd)
# Description: The binding assay was performed as SPA-based assay using a biotinylated form of human BACE1 recombinantly expressed and subsequently purified from Freestyle HEK293 cells. The binding assay was run in a 50 mM sodium acetate buffer, pH 4.5 containing 50 mM NaCl and 0.03% Tween-20 in white clear bottom 384 plates (Corning #3653). 10 nM (final concentration) radioligand ([^3H]-N-((1S,2R)-1-benzyl-3-cyclopropylamino-2-hydroxy-propyl)-5-(methanesulfonyl-methyl-amino)-N-((R)-1-phenyl-ethyl)-isophthalamide) (TRQ11569 purchased from GE Healthcare) was mixed with test compound at a given concentration, 6 nM (final concentration) human BACE1 and 25 μg Streptavidin coated PVT core SPA beads (RPNQ0007, GE Healthcare Life Sciences) in a total volume of 40 μl. Several concentrations of each test compound were tested in the assay for IC50 determination. The plates were incubated for one hour at room temperature and counted in a Wallac Trilux counter. Total and non-specific binding were determined using buffer and 1 μM (final concentration) of the high affinity BACE1 reference inhibitor (S)-6-[3-chloro-5-(5-prop-1-ynyl-pyridin-3-yl)-thiophen-2-yl]-2-imino-3,6-dimethyl-tetrahydro-pyrimidin-4-one, respectively. For each test compound, a IC50 value (the concentration mediating 50% inhibition of the specific binding of the radioligand) was determined from concentration-response curve and used to calculate the Ki from the equation Ki=IC50/(1+L/Kd), where L and Kd are the final concentration of the radioligand used in the assay and the dissociation constant of the radioligand, respectively. The Kd of the radioligand was determined from saturation binding experiments.
# T1 sequence (P56817 46-501): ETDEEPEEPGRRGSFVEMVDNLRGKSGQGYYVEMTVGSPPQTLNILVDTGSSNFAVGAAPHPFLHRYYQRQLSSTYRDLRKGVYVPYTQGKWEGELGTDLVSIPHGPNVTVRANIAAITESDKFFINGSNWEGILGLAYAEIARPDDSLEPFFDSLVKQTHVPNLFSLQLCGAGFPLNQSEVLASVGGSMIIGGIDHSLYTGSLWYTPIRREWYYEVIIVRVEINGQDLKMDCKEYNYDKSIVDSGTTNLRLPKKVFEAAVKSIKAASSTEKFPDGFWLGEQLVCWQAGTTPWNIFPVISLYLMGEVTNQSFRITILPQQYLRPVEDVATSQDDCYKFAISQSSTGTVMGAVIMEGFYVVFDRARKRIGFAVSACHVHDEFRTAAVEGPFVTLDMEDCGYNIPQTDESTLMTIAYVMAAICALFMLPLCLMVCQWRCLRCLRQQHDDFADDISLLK
compound,measurement,setting,value
"COc1ccc(C(=O)Nc2cc(F)c(F)c([C@@]3(CF)N=C(N)CCC3(F)F)c2)nc1 [Compound 15, (S)-N-(3-(6-amino-3,3-difluoro-2-(fluoromethyl)-2,3,4,5-tetrahydropyridin-2-yl)-4,5-difluorophenyl)-5-methoxypicolinamide]",inhibition at 10 µM,[1],106%
same,"efflux ratio at 60 min, 0.5 μM",[2],1.09
same,Aβ40 reduction,"[3]; rat brain, 10 mg/kg p.o.",33%
same,Aβ40 reduction,"[3]; rat brain, 30 mg/kg p.o.",43%
same,Aβ40 reduction,"[3]; rat plasma, 10 mg/kg p.o.",34%
same,Aβ40 reduction,"[3]; rat plasma, 30 mg/kg p.o.",34%
same,Ki,[4],9 nM
